# Laboratory results as given in patent US9242984B2, “Pyrazolyl derivatives as Syk inhibitors” (Merck Sharp & Dohme Corp., priority 2012, dated 2016).
# Target: T1, recombinant human Syk (GST-hSyk fusion protein) (Homo sapiens, UniProt P43405)
# T1 construct: purchased Carna Biosciences 08-176
# Assay: Homogeneous Time-Resolved Fluorescence (HTRF) assay for the recombinant human Syk enzyme
# Type: biochemical
# Details: 10-dose titration, 25 μM ATP; read-out: rhSYK IC50
# Outline: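 IC50 came from a four-parameter fit over ten doses, 10 μM to 0.508 nM, with HTRF read-out (Eu-anti-pTyr antibody, SA-APC, EDTA stop, 30 min). The enzyme, 5 pM GST-hSyk, met compound for 10 min, then phosphorylated 250 nM biotin-peptide with 25 μM ATP and 5 mM Mg for 45 min at room temperature, pH 7.5.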
row,IC50,Compound
1,0.0072 µM,"Cc1cc(Nc2ncccn2)cc(-c2cnn(C(C)c3ccc(C(N)=O)cc3)c2)c1 (single isomer, unassigned) [Example 28.2, 4-(1-(4-(3-methyl-5-(pyrimidin-2-ylamino)phenyl)-1H-pyrazol-1-yl)ethyl)benzamide]"
2,0.0078 µM,"Cc1cc(Nc2nccc(C)n2)cc(-c2cnn(C3CCCC(O)C3O)c2)c1 (centres unmarked) [Example 10.8, 3-(4-{3-methyl-5-[(4-methylpyrimidin-2-yl)amino]phenyl}-1H-pyrazol-1-yl)cyclohexane-1,2-diol]"

# Same assay, conditions: IC50 class; 10-dose titration, 25 μM ATP; read-out: rhSYK Activity
row,Compound,IC50
1,"Cc1cc(Nc2nccc(C(F)F)n2)cc(-c2cnn(CC3(C)CNC(=O)C3)c2)c1 (centres unmarked) [Example 2.77, 4-{[4-(3-{[4-(difluoromethyl)pyrimidin-2-yl]amino}-5-methylphenyl)-1H-pyrazol-1-yl]methyl}-4-methylpyrrolidin-2-one]",≤ 0.1 µM
2,"O=C1NCC(Cn2cc(-c3cccc(Nc4nccc(C(F)F)n4)c3)cn2)O1 (centres unmarked) [Example 2.66, 5-{[4-(3-{[4-(difluoromethyl)pyrimidin-2-yl]amino}phenyl)-1H-pyrazol-1-yl]methyl}-1,3-oxazolidin-2-one]",≤ 0.1 µM
3,"Cc1cc(Nc2nccc(C(F)(F)F)n2)cc(-c2cnn(CCC(=O)O)c2)c1 [Example 1.2, 3-[4-(3-methyl-5-{[4-(trifluoromethyl)-pyrirnidin-2-yl]amino}-phenyl)-1H-pyrazol-1-yl]-propanoic acid]",≤ 0.1 µM
4,"Cc1cc(Nc2nccc(C(F)(F)F)n2)cc(-c2cnn(C3CCC(C(=O)O)C(C)(C)C3)c2)c1 (centres unmarked) [Example 2.59, 2,2-dimethyl-4-[4-(3-methyl-5-{[4-(trifluoromethyl)pyrimidin-2-yl]amino}phenyl)-1H-pyrazol-1-yl]cyclohexanecarboxylic acid]",≤ 0.1 µM
5,"Cc1cc(Nc2nccc(C(F)(F)F)n2)cc(-c2cnn(C(C)C(O)C(N)=O)c2)c1 (centres unmarked) [Example 7.5, 2-hydroxy-3-[4-(3-methyl-5-{[4-(trifluorometh-yl)pyrimidin-2-yl]amino}-phenyl)-1H-pyrazol-1-yl]butanamide]",≤ 0.1 µM
6,"Cc1cc(Nc2nccc(C(F)(F)F)n2)cc(-c2cnn(C[C@]3(O)CC[C@@H](C(=O)O)CC3)c2)c1 [Example 5.5, cis-4-hydroxy-4-{[4-(3-methyl-5-{[4-(trifluoro-methyl)pyrimidin-2-yl]amino}-phenyl)-1H-pyrazol-1-yl]methyl}-cyclo-hexanecarboxylic acid]",≤ 0.1 µM
7,"Cc1cc(Nc2nccc(C(F)F)n2)cc(-c2cnn(CC(O)c3ccccn3)c2)c1 (centres unmarked) [Example 5.26, 2-[4-(3-{[4-(difluoromethyl)pyrimidin-2-yl]amino}-5-methylphenyl)-1H-pyrazol-1-yl]-1-pyridin-2-ylethanol]",≤ 0.1 µM
8,"Nc1cc(Nc2nccc(C(F)(F)F)n2)cc(-c2cnn(C3CCC(C(=O)O)CC3)c2)c1 (centres unmarked) [Example 1.50, 4-[4-(3-amino-5-{[4-(trifluoromethyl)pyrimidin-2-yl]amino}phenyl)-1H-pyrazol-1-yl]cyclohexanecarboxylic acid]",≤ 0.1 µM
9,"Cc1cc(Nc2nccc(C)n2)cc(-c2cnn(C3CCCC(O)C3O)c2)c1 (centres unmarked) [Example 10.8, 3-(4-{3-methyl-5-[(4-methylpyrimidin-2-yl)amino]phenyl}-1H-pyrazol-1-yl)cyclohexane-1,2-diol]",≤ 0.1 µM
10,"O=C1NCC(Cn2cc(-c3cccc(Nc4nccc(C(F)F)n4)c3)cn2)O1 (centres unmarked) [Example 2.65, 5-{[4-(3-{[4-(difluoromethyl)pyrimidin-2-yl]amino}phenyl)-1H-pyrazol-1-yl]methyl}-1,3-oxazolidin-2-one]",≤ 0.1 µM
11,"CC(=O)Nc1cc(Nc2nccc(C(F)(F)F)n2)cc(-c2cnn(C3CCC(C(=O)O)CC3)c2)c1 (centres unmarked) [Example 1.52, 4-{4-[3-(acetylamino)-5-{[4-(trifluoromethyl)pyrimidin-2-yl]amino}phenyl]-1H-pyrazol-1-yl}cyclohexanecarboxylic acid]",≤ 0.1 µM
12,"Cc1cc(Nc2nccc(C(F)F)n2)cc(-c2cnn(CC(O)COCC(F)(F)F)c2)c1 (centres unmarked) [Example 5.31, 1-[4-(3-{[4-(difluoromethyl)pyrimidin-2-yl]amino}-5-methylphenyl)-1H-pyrazol-1-yl]-3-(2,2,2-trifluoroethoxy)propan-2-ol]",≤ 0.1 µM
13,"Cc1cc(Nc2nccc(C(F)F)n2)cc(-c2cnn(CC3CC(=O)NC3=O)c2)c1 (centres unmarked) [Example 2.71, 3-{[4-(3-{[4-(difluoromethyl)pyrimidin-2-yl]amino}-5-methylphenyl)-1H-pyrazol-1-yl]methyl}pyrrolidine-2,5-dione]",≤ 0.1 µM
14,"Cc1cc(Nc2nccc(C(F)(F)F)n2)cc(-n2cc(C(C)(O)[C@H]3CC[C@H](C(=O)O)CC3)cn2)c1 (stereo partly drawn) [Example 19.13, trans-4-{1-hydroxy-1-[1-(3-methyl-5-{[4-(trifluoromethyl)pyrimidin-2-yl]amino}phenyl)-1H-pyrazol-4-yl]ethyl}cyclohexanecarboxylic acid]",≤ 0.1 µM
15,"Cc1cc(Nc2nccc(C(F)(F)F)n2)cc(-c2cnn(CC(C)(C)O)c2)c1 [Example 5.12, 2-methyl-1-[4-(3-methyl-5-{[4-(trifluorometh-yl)pyrimidin-2-yl]amino}-phenyl)-1H-pyrazol-1-yl]propan-2-ol]",≤ 0.1 µM

# Other lines, results leading:
row,IC50,Compound
1,≤ 0.1 µM,"Cc1cc(Nc2nccc(C(F)F)n2)cc(-c2cnn(CC3OC(=O)NC3C3CC3)c2)c1 (single isomer, unassigned) [Example 23.19, 4-cyclopropyl-5-{[4-(3-{[4-(difluoromethyl)pyrimidin-2-yl]amino}-5-methylphenyl)-1H-pyrazol-1-yl]methyl}-1,3-oxazolidin-2-one]"
2,≤ 0.1 µM,"Cc1cc(Nc2nccc(C(F)(F)F)n2)cc(-c2cnn(CC(C)(O)CC#N)c2)c1 (centres unmarked) [Example 20.2, 3-hydroxy-3-methyl-4-[4-(3-methyl-5-{[4-(trifluoromethyl)pyrimidin-2-yl]amino}phenyl)-1H-pyrazol-1-yl]butanenitrile]"
3,≤ 0.1 µM,"5-{[4-(3-{[4-(1,1-difluoromethyl)pyrimidin-2-yl]amino}-5-methylphenyl)-1H-pyrazol-1-yl]methyl}-4-methyl-1,3-oxazolidin-2-one [Example 23.11]"
4,≤ 0.1 µM,"Cc1cc(Nc2ncccn2)cc(-c2cnn(C(C)c3ccc(C(N)=O)cc3)c2)c1 (single isomer, unassigned) [Example 28.2, 4-(1-(4-(3-methyl-5-(pyrimidin-2-ylamino)phenyl)-1H-pyrazol-1-yl)ethyl)benzamide]"
5,≤ 0.1 µM,"Cc1cc(Nc2nccc(C(F)F)n2)cc(-c2cnn(CCNS(=O)(=O)N3CCOCC3)c2)c1 [Example 27.14, N-{2-[4-(3-{[4-(difluoromethyl)pyrimidin-2-yl]amino}-5-methylphenyl)-1H-pyrazol-1-yl]ethyl}morpholine-4-sulfonamide]"
6,≤ 0.1 µM,"COC(=O)NCCn1cc(-c2cc(C)cc(Nc3nccc(C(F)F)n3)c2)cn1 [Example 27.2, methyl {2-[4-(3-{[4-(difluoromethyl)pyrimidin-2-yl]amino}-5-methylphenyl)-1H-pyrazol-1-yl]ethyl}carbamate]"
7,≤ 0.1 µM,"Cc1cc(Nc2nccc(C(F)F)n2)cc(-c2cnn(CC3OC(=O)NC3CO)c2)c1 (single isomer, unassigned) [Example 33.4, 5-{[4-(3-{[4-(difluoromethyl)pyrimidin-2-yl]amino}-5-methylphenyl)-1H-pyrazol-1-yl]methyl}-4-(hydroxymethyl)-1,3-oxazolidin-2-one]"
8,≤ 0.1 µM,"Cc1cc(Nc2nccc(C(F)F)n2)cc(-c2cnn(CCNC(=O)NCC3CCOCC3)c2)c1 [Example 27.17, 1-{2-[4-(3-{[4-(difluoromethyl)pyrimidin-2-yl]amino}-5-methylphenyl)-1H-pyrazol-1-yl]ethyl}-3-(tetrahydro-2H-pyran-4-ylmethyl)urea]"
9,≤ 0.1 µM,"Cc1cc(Nc2nccc(C(F)F)n2)cc(-c2cnn(CC(C)(O)C(C)(C)O)c2)c1 (centres unmarked) [Example 21.7, 1-[4-(3-{[4-(difluoromethyl)pyrimidin-2-yl]amino}-5-methylphenyl)-1H-pyrazol-1-yl]-2,3-dimethylbutane-2,3-diol]"
